Reference: patent US4332820A, “Substituted benzonitriles having antiviral activity” (The Dow Chemical Company, priority 1980, dated 1982)
≈ marks a conversion by molar mass, not a printed value.

Key:
rhinovirus type 64 = assay: Inhibition of multiplication, WI-38 cell culture tubes; format: cell-based; details: Enterovirus, 25 μg/ml, read-out: inhibition grade
rhinovirus type 19 = assay: as above; format: cell-based; details: Enterovirus, 25 μg/ml, read-out: inhibition grade
influenze PR 8 = format: cell-based; details: at the test concentrations
influenza WSN = assay: Further tissue culture testing; format: cell-based; details: at the test concentrations
rhinovirus type 4 = assay: Inhibition of multiplication, WI-38 cell culture tubes; format: cell-based; details: Enterovirus, 25 μg/ml, read-out: inhibition grade
[1] = test system: rhinovirus type 64 (RV-64); assay: Tissue culture antiviral testing, RV-64 (cytopathic effect, HeLa cells); format: cell-based; details: Enterovirus, HeLa cells, NA = not active at the standard test conditions, read-out: Lowest concentration of the compound necessary to cause a 50 percent reduction in cytopathic effect
[2] = test system: Coxsackie A21 virus (Cox A21); assay: Tissue culture antiviral testing, Cox A21 (cytopathic effect, HeLa cells); format: cell-based; details: HeLa cells, NA = not active at the standard test conditions, read-out: Lowest concentration of the compound necessary to cause a 50 percent reduction in cytopathic effect
rhinovirus type 10 = assay: Inhibition of multiplication, WI-38 cell culture tubes; format: cell-based; details: Enterovirus, 25 μg/ml, read-out: inhibition grade
[3] = test system: feline calici virus, unconfirmed; format: cell-based; details: at the test concentrations
[4] = test system: parainfluenza NDV (Newcastle's disease virus); format: cell-based; details: at the test concentrations
adenovirus (untyped) = format: cell-based; details: at the test concentrations
Acute toxicity in rats = details: rat, in vivo
[5] = Acute oral toxicity in beagle dogs; details: dog, in vivo
Excerpt: Testing in beagle dogs indicated an acute oral toxicity of greater than 2 grams/kg.

rhinovirus type 81 = assay: Inhibition of multiplication, WI-38 cell culture tubes; format: cell-based; details: Enterovirus, 25 μg/ml, read-out: inhibition grade
Coxsackie B2 = format: cell-based; details: enterovirus Coxsackie B2
rhinovirus type 39 = assay: Inhibition of multiplication, WI-38 cell culture tubes; format: cell-based; details: Enterovirus, 25 μg/ml, read-out: inhibition grade
rhinovirus type 60 = assay: as above; format: cell-based; details: Enterovirus, 25 μg/ml, read-out: inhibition grade
rhinovirus type 8 = assay: as above; format: cell-based; details: Enterovirus, 25 μg/ml, read-out: inhibition grade
Cox A21 = assay: Single Oral Dose test in mice challenged with Cox A21; format: in vivo, Swiss male mice
Picornaviruses = assay: Antiviral activity against picornaviruses, overall (tissue culture and animal testing)
Procedure: Monolayered HeLa cells in 16 millimeter (mm) tissue culture dishes were treated with 1 ml of culture medium (Eagles medium supplemented with fetal calf serum) containing subject compound at an appropriate concentration or containing no compound at all. Culture mediums such as those described herein are more fully described in standard texts, as for example, Kuchler's Biochemical Methods in Cell Culture and Virology, Dowden, Hutchinson and Ross, Inc., Stroudsberg, Pa. (1977). Following treatment, cells were challenged with 0.05 ml of rhinovirus type 1A (RV-1A), rhinovirus type 2 (RV-2) or Coxsackie A21 virus (Cox A21) in culture medium. Some of the compounds were also tested against rhinovirus type 5 (RV-5), rhinovirus type 8 (RV-8) or rhinovirus type 64 (RV-64). Cell controls received no viruses.
In addition, some of the compounds were tested in animals utilizing the following procedure, hereinafter referred to as the "Single Oral Dose" test. […] Mice were observed daily for 7-10 days post-challenge and deaths recorded. […]
Some of the compounds were also tested in animals utilizing the following procedure, hereinafter referred to as the "Continuous Oral Feeding" test. […] Deaths in both control and experimental groups were recorded for the 10 days and the results analyzed by a chi-square test. […]

parainfluenza 1 = format: cell-based; details: at the test concentrations
rhinovirus type 13 = assay: Inhibition of multiplication, WI-38 cell culture tubes; format: cell-based; details: Enterovirus, 25 μg/ml, read-out: inhibition grade
influenza A = format: cell-based; details: at the test concentrations
rhinovirus type 29 = assay: Inhibition of multiplication, WI-38 cell culture tubes; format: cell-based; details: Enterovirus, 25 μg/ml, read-out: inhibition grade
rhinovirus type 21 = assay: as above; format: cell-based; details: Enterovirus, 25 μg/ml, read-out: inhibition grade
rhinovirus type 6 = assay: as above; format: cell-based; details: Enterovirus, 25 μg/ml, read-out: inhibition grade
rhinovirus type 8 (RV-8) = assay: Tissue culture antiviral testing, RV-8 (cytopathic effect, HeLa cells); format: cell-based; details: Enterovirus, HeLa cells, read-out: Lowest concentration of the compound necessary to cause a 50 percent reduction in cytopathic effect
rhinovirus type 58 = assay: Inhibition of multiplication, WI-38 cell culture tubes; format: cell-based; details: Enterovirus, 25 μg/ml, read-out: inhibition grade
[6] = Cytotoxicity in tissue culture (HeLa monolayers); format: cell-based; details: human; HeLa cells; observed at 48 and 72 hours post-treatment; read-out: Cytotoxicity (concentration of the compound found to be toxic to the cell)
Coxsackie A21 virus = assay: Continuous Oral Feeding test in mice challenged with Coxsackie A21; format: in vivo
Coxsackie B4 = format: cell-based; details: enterovirus Coxsackie B4
[7] = test system: Hank's (untyped) rhinovirus; assay: Inhibition of multiplication, WI-38 cell culture tubes; format: cell-based; details: Enterovirus, 25 μg/ml, read-out: inhibition grade
rhinovirus type 56 = assay: as above; format: cell-based; details: Enterovirus, 25 μg/ml, read-out: inhibition grade
[8] = test system: rhinovirus type 1A (RV-1A); assay: Tissue culture antiviral testing, RV-1A (cytopathic effect, HeLa cells); format: cell-based; details: Enterovirus, HeLa cells, NA = not active at the standard test conditions, read-out: Lowest concentration of the compound necessary to cause a 50 percent reduction in cytopathic effect
rhinovirus type 75 = assay: Inhibition of multiplication, WI-38 cell culture tubes; format: cell-based; details: Enterovirus, 25 μg/ml, read-out: inhibition grade
[9] = test system: Herpes simplex virus type 1; format: cell-based; details: at the test concentrations
rhinovirus type 2 (RV-2) = assay: Tissue culture antiviral testing, RV-2 (cytopathic effect, HeLa cells); format: cell-based; details: Enterovirus, HeLa cells, NA = not active at the standard test conditions, read-out: Lowest concentration of the compound necessary to cause a 50 percent reduction in cytopathic effect
rhinovirus type 5 (RV-5) = assay: Tissue culture antiviral testing, RV-5 (cytopathic effect, HeLa cells); format: cell-based; details: Enterovirus, HeLa cells, read-out: Lowest concentration of the compound necessary to cause a 50 percent reduction in cytopathic effect
rhinovirus type 59 = assay: Inhibition of multiplication, WI-38 cell culture tubes; format: cell-based; details: Enterovirus, 25 μg/ml, read-out: inhibition grade
rhinovirus type 17 = assay: as above; format: cell-based; details: Enterovirus, 25 μg/ml, read-out: inhibition grade
rhinovirus type 74 = assay: as above; format: cell-based; details: Enterovirus, 25 μg/ml, read-out: inhibition grade
rhinovirus type 68 = assay: as above; format: cell-based; details: Enterovirus, 25 μg/ml, read-out: inhibition grade

SMILES: N#Cc1cc([N+](=O)[O-])ccc1Oc1ccc(Cl)c(Cl)c1 [Example 1, 2-(3,4-Dichlorophenoxy)-5-nitrobenzonitrile]
- inhibition at 25 µg/mL (rhinovirus type 64): ≥ 75%
- inhibition at 25 µg/mL (rhinovirus type 19): ≥ 75%
- effect on virus multiplication (influenze PR 8): did not affect the multiplication
- effect on virus multiplication (influenza WSN): did not affect the multiplication
- inhibition at 25 µg/mL (rhinovirus type 4): ≥ 75%
- EC50 [1]: 0.156 µg/mL (≈ 0.505 µM)
- EC50 [2]: 0.25 µg/mL (≈ 0.809 µM)
- inhibition at 25 µg/mL (rhinovirus type 10): ≥ 75%
- effect on virus multiplication [3]: did not affect the multiplication
- effect on virus multiplication [4]: did not affect the multiplication
- effect on virus multiplication (adenovirus (untyped)): did not affect the multiplication
- LD50 (Acute toxicity in rats; ip, intraperitoneal, read-out: acute toxicity, intraperitoneal administration): > 2000 mg/kg
- LD50 (Acute toxicity in rats; oral, read-out: acute oral toxicity): ~5000 mg/kg
- LD50 [5]: > 2000 mg/kg
- inhibition at 25 µg/mL (rhinovirus type 81): ≥ 75%
- inhibitory activity (Coxsackie B2): displayed inhibitory activity
- inhibition at 25 µg/mL (rhinovirus type 39): ≥ 75%
- inhibition at 25 µg/mL (rhinovirus type 60): ≥ 75%
- inhibition at 25 µg/mL (rhinovirus type 8): ≥ 75%
- antiviral activity in the "Single Oral Dose" test (Cox A21; in words, 95% confidence level): exhibited antiviral activity
- X^2 (Single Oral Dose, chi-square of deaths vs virus control) (Cox A21; po, 600 mg/kg, 3 h): 5.36
- effectiveness against picornaviruses (Picornaviruses; general statement): particularly effective against Picornaviruses
- antiviral activity compared with 5-(3,4-dichlorophenoxy)-2-nitrobenzonitrile (Picornaviruses; standard tissue culture and animal testing): markedly greater antiviral activity
- effect on virus multiplication (parainfluenza 1): did not affect the multiplication
- inhibition at 25 µg/mL (rhinovirus type 13): ≥ 75%
- effect on virus multiplication (influenza A): did not affect the multiplication
- inhibition at 25 µg/mL (rhinovirus type 29): ≥ 75%
- inhibition at 25 µg/mL (rhinovirus type 21): ≥ 75%
- inhibition at 25 µg/mL (rhinovirus type 6): ≥ 75%
- EC50 (rhinovirus type 8 (RV-8)): 0.25 µg/mL (≈ 0.809 µM)
- inhibition at 25 µg/mL (rhinovirus type 58): ≥ 75%
- MCC [6]: > 100 µg/mL
- antiviral activity in the "Continuous Oral Feeding" test (Coxsackie A21 virus; in words, 95% confidence level): exhibited antiviral activity
- X^2 (Continuous Oral Feeding, chi-square of deaths) (Coxsackie A21 virus; po, 0.06 % in diet, 240 h, 0.06 % strength): 23.62
- inhibitory activity (Coxsackie B4): displayed inhibitory activity
- inhibition at 25 µg/mL [7]: ≥ 75%
- inhibition at 25 µg/mL (rhinovirus type 56): ≥ 75%
- EC50 [8]: 0.5 µg/mL (≈ 1.62 µM)
- inhibition at 25 µg/mL (rhinovirus type 75): ≥ 75%
- effect on virus multiplication [9]: did not affect the multiplication
- EC50 (rhinovirus type 2 (RV-2)): 0.25 µg/mL (≈ 0.809 µM)
- EC50 (rhinovirus type 5 (RV-5)): 0.5 µg/mL (≈ 1.62 µM)
- inhibition at 25 µg/mL (rhinovirus type 59): ≥ 75%
- inhibition at 25 µg/mL (rhinovirus type 17): ≥ 75%
- inhibition at 25 µg/mL (rhinovirus type 74): ≥ 75%
- inhibition at 25 µg/mL (rhinovirus type 68): ≥ 75%
